# Test results reported in US8895585B2, “Nicotinamide derivative or salt thereof” (FUJIFILM Corporation, priority 2010, dated 2014).
# How the values were obtained:
# [1] = target: T1, glutathione S-transferase (GST)-fused full-length human Syk protein (Homo sapiens, UniProt P43405); test: Syk enzyme assay; type: biochemical; conditions: Syk enzyme assay, Test Example 1; read-out: IC50 of Syk-inhibitory activity
# T1 construct: (GST)-fused full-length human Syk protein; GST (glutathione S-transferase); purchased Carna Biosciences
# Outline: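 IC50 values come from a time-resolved FRET readout (615 and 665 nm) of substrate phosphorylation, measured after an EDTA stop and 1 h antibody binding. The kinase reaction ran 40 min at room temperature with 27 μM ATP and 0.4 μM biotin-peptide, following a 15 min compound preincubation with baculovirus-made GST-full-length human Syk.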
# THP-1 cells = test: TNFα generation assay; type: cell-based, human; conditions: Homo sapiens, THP-1, THP-1 cells; Table 22; read-out: IC50 in TNFα generation assay
# Outline: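 Secreted TNFα in supernatant quantified by ELISA or AlphaLISA after 7 h culture on human IgG-coated wells (10 μg/ml coating). Cells were IFN-γ-differentiated THP-1 (10 ng/ml, 2 days), exposed to compound for 30 min at room temperature before plating.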
Structure (SMILES),IC50 [1] [µM],IC50 (THP-1 cells) [µM]
"NC(=O)c1cc(F)c(N[C@@H]2CCCC[C@@H]2N)nc1Nc1ccnc(-n2ccnn2)c1 (relative stereo) [Example 006-126, 2-((2-(1H-1,2,3-triazol-1-yl)pyridin-4-yl)amino)-6-((cis-2-aminocyclohexyl)amino)-5-fluoronicotinamide]",< 0.01,< 0.065
"COc1cc(Nc2nc(N[C@H](C3CC3)[C@H](C)N)c(F)cc2C(N)=O)cc(OC)n1 [Example 006-429, 6-(((1R,2S)-2-amino-1-cyclopropylpropyl)amino)-2-((2,6-dimethoxypyridin-4-yl)amino)-5-fluoronicotinamide]",< 0.01,0.065 to 0.13
"CCCC[C@H](CN)Nc1nc(Nc2ccc3ncccc3c2)c(C(N)=O)cc1F [Example 006-274, (R)-6-((1-aminohexan-2-yl)amino)-5-fluoro-2-(quinolin-6-ylamino)nicotinamide]",< 0.01,0.065 to 0.13
Cc1cccc(Nc2nc(NC3CCCCC3N)c(Cl)cc2C(N)=O)c1 (stereo not drawn) [Example 035-005],< 0.01,0.13 to 0.2
"COCCn1cc2cc(Nc3nc(N[C@@H]4CCCC[C@@H]4N)c(F)cc3C(N)=O)ccc2n1 (relative stereo) [Example 004-094, 6-(cis-2-aminocyclohexylamino)-5-fluoro-2-((2-(2-methoxyethyl)-2H-indazol-5-yl)amino)-nicotinamide]",< 0.01,0.13 to 0.2
COc1ncc(Nc2nc(N[C@@H]3CCCC[C@@H]3N)c(F)cc2C(N)=O)c2cc[nH]c12 [Example 004-235],< 0.01,0.065 to 0.13
"CCC[C@@H](Nc1nc(Nc2ccnc(OCCOC)c2)c(C(N)=O)cc1F)[C@H](C)N [Example 006-310, 6-(((2S,3R)-2-aminohexan-3-yl)amino)-5-fluoro-2-((2-(2-methoxyethoxy)pyridin-4-yl)amino)nicotinamide]",< 0.01,0.065 to 0.13
"CC[C@H](N)[C@@H](CC)Nc1nc(Nc2ccc3ncccc3c2)c(C(N)=O)cc1F [Example 006-199, 6-(((3R,4S)-4-aminohexan-3-yl)amino)-5-fluoro-2-((quinolin-6-yl)amino)nicotinamide]",< 0.01,0.065 to 0.13
COCCn1ncc2ccc(Nc3nc(NC4CCCCC4N)c(F)cc3C(N)=O)cc21 (stereo not drawn) [Example 002-048],< 0.01,0.13 to 0.2
"Cc1cncc(Nc2nc(N[C@@H]3CCCC[C@@H]3N)c(F)cc2C(N)=O)c1 [Example 006-103, 6-(((1R,2S)-2-aminocyclohexyl)amino)-5-fluoro-2-((5-methylpyridin-3-yl)amino)nicotinamide]",< 0.01,< 0.065
COc1ccc(F)c(-c2cc(Nc3nc(NC4CCCCC4N)c(F)cc3C(N)=O)ccn2)c1 (stereo not drawn) [Example 002-141],< 0.01,0.065 to 0.13
"NC(=O)c1cc(F)c(NCC(N)C(F)(F)F)nc1Nc1ccc2ncccc2c1 (stereo not drawn) [Example 014-016, 6-((2-amino-3,3,3-trifluoropropyl)amino)-5-fluoro-2-((quinolin-6-yl)amino)nicotinamide]",< 0.01,0.065 to 0.13
"Cc1nn(CC(F)F)c2ccc(Nc3nc(N[C@H](CC4CC4)[C@H](C)N)c(F)cc3C(N)=O)cc12 [Example 006-445, 6-(((2R,3S)-3-amino-1-cyclopropylbutan-2-yl)amino)-2-((1-(2,2-difluoroethyl)-3-methyl-1H-indazol-5-yl)amino)-5-fluoronicotinamide]",< 0.01,0.065 to 0.13
"CCOc1ncc(Nc2nc(N[C@@H]3CCCC[C@@H]3N)c(F)cc2C(N)=O)cc1C [Example 006-497, 6-(((1R,2S)-2-aminocyclohexyl)amino)-2-((6-ethoxy-5-methylpyridin-3-yl)amino)-5-fluoronicotinamide]",< 0.01,0.065 to 0.13
"CC[C@H](N)[C@@H](CC)Nc1nc(Nc2cncc(C3CC3)c2)c(C(N)=O)cc1F [Example 006-378, 6-(((3R,4S)-4-aminohexan-3-yl)amino)-2-((5-cyclopropylpyridin-3-yl)amino)-5-fluoronicotinamide]",< 0.01,0.065 to 0.13
COCCOc1ccc2cc(Nc3nc(NC4CCCCC4N)c(F)cc3C(N)=O)ccc2n1 (stereo not drawn) [Example 002-097],< 0.01,0.13 to 0.2
CC(C)Cn1ccc2c(Nc3nc(N[C@@H]4CCCC[C@@H]4N)c(F)cc3C(N)=O)ccnc21 [Example 004-036],< 0.01,0.065 to 0.13
"CC[C@@H](Nc1nc(Nc2ccnc(OC)c2)c(C(N)=O)cc1F)[C@H](C)N [Example 006-266, 6-(((2S,3R)-2-aminopentan-3-yl)amino)-5-fluoro-2-((2-methoxypyridin-4-yl)amino)nicotinamide]",< 0.01,< 0.065

Structure (SMILES),IC50 [1] [µM],IC50 (THP-1 cells) [µM]
"CC[C@H](N)[C@@H](CC)Nc1nc(Nc2cc(OC)nc(OC)c2)c(C(N)=O)cc1F [Example 006-379, 6-(((3R,4S)-4-aminohexan-3-yl)amino)-2-((2,6-dimethoxypyridin-4-yl)amino)-5-fluoronicotinamide]",< 0.01,0.13 to 0.2
"C=C(C)C[C@@H](Nc1nc(Nc2ccc3c(cnn3CC)c2)c(C(N)=O)cc1F)[C@H](C)N [Example 006-397, 6-(((2S,3R)-2-amino-5-methylhex-5-en-3-yl)amino)-2-((1-ethyl-1H-indazol-5-yl)amino)-5-fluoronicotinamide]",< 0.01,< 0.065
"Cc1cc2cc(Nc3nc(N[C@@H]4CCCC[C@@H]4N)c(F)cc3C(N)=O)ccc2[nH]1 (relative stereo) [Example 004-071, 6-(cis-2-aminocyclohexylamino)-5-fluoro-2-((2-methyl-1H-indol-5-yl)amino)nicotinamide]",< 0.01,0.13 to 0.2
"Cc1ccc(Nc2nc(N[C@@H]3CCCC[C@@H]3N)c(F)cc2C(N)=O)cn1 [Example 006-104, 6-(((1R,2S)-2-aminocyclohexyl)amino)-5-fluoro-2-((6-methylpyridin-3-yl)amino)nicotinamide]",< 0.01,0.065 to 0.13
"COC[C@@H](Nc1nc(Nc2ccnc(OC)c2)c(C(N)=O)cc1F)[C@H](C)N [Example 006-470, 6-(((2S,3S)-3-amino-1-methoxybutan-2-yl)amino)-5-fluoro-2-((2-methoxypyridin-4-yl)amino)nicotinamide]",0.01 to 0.05,0.065 to 0.13
NC(=O)c1cc(F)c(N[C@@H]2CCCC[C@@H]2N)nc1Nc1cnc2cccnc2c1 [Example 004-002],0.01 to 0.05,< 0.065
Cn1cc2cc(Nc3nc(NC4CCCCC4N)c(F)cc3C(N)=O)ccc2n1 (stereo not drawn) [Example 002-041],< 0.01,0.065 to 0.13
"CC[C@@H](Nc1nc(Nc2ccnc(-c3cccc(OC)c3F)c2)c(C(N)=O)cc1F)[C@H](C)N [Example 006-281, 6-(((2S,3R)-2-aminopentan-3-yl)amino)-5-fluoro-2-((2-(2-fluoro-3-methoxyphenyl)pyridin-4-yl)amino)nicotinamide]",< 0.01,< 0.065
CCn1nc(C)c2cc(Nc3nc(NC4CCCCC4N)c(F)cc3C(N)=O)ccc21 (stereo not drawn) [Example 002-207],< 0.01,0.065 to 0.13
"C[C@H](N)[C@@H](CC1CC1)Nc1nc(Nc2cncc(-n3cccn3)c2)c(C(N)=O)cc1F [Example 006-392, 2-((5-(1H-pyrazol-1-yl)pyridin-3-yl)amino)-6-(((2R,3S)-3-amino-1-cyclopropylbutan-2-yl)amino)-5-fluoronicotinamide]",< 0.01,0.065 to 0.13
"CCC[C@@H](Nc1nc(Nc2cnc3cc(OC)ccc3c2)c(C(N)=O)cc1F)[C@H](C)N [Example 006-204, 6-(((2S,3R)-2-aminohexan-3-yl)amino)-5-fluoro-2-((7-methoxyquinolin-3-yl)amino)nicotinamide]",< 0.01,0.065 to 0.13
"NC(=O)c1cc(F)c(N[C@@H]2CCCC[C@@H]2N)nc1Nc1cnc(N2CCOCC2)c(Cl)c1 [Example 006-466, 6-(((1R,2S)-2-aminocyclohexyl)amino)-2-((5-chloro-6-morpholinopyridin-3-yl)amino)-5-fluoronicotinamide]",0.01 to 0.05,0.065 to 0.13
CCn1nc(F)c2ccc(Nc3nc(NC4CCCCC4N)c(F)cc3C(N)=O)cc21 (stereo not drawn) [Example 002-199],< 0.01,0.13 to 0.2
"COc1ncc(Nc2nc(N[C@@H]3CCCC[C@@H]3N)c(F)cc2C(N)=O)cc1N1CCOCC1 [Example 006-564, 6-(((1R,2S)-2-aminocyclohexyl)amino)-5-fluoro-2-((6-methoxy-5-mopholinopyridin-3-yl)amino)nicotinamide]",0.1 to 1,0.065 to 0.13
COCCOCCOc1ccc2cc(Nc3nc(NC4CCCCC4N)c(F)cc3C(N)=O)ccc2n1 (stereo not drawn) [Example 002-110],< 0.01,0.13 to 0.2
"CC[C@@H](Nc1nc(Nc2ccc3c(c2)c(-n2cccn2)nn3C)c(C(N)=O)cc1F)[C@H](C)N [Example 006-596, 6-(((2S,3R)-2-aminopentan-3-yl)amino)-5-fluoro-2-((1-methyl-3-(1H-pyrazol-1-yl)-1H-indazol-5-yl)amino)nicotinamide]",< 0.01,0.065 to 0.13
"CCn1ncc2cc(Nc3nc(N[C@H](COC)[C@H](C)N)c(F)cc3C(N)=O)ccc21 [Example 006-469, 6-(((2S,3S)-3-amino-1-methoxybutan-2-yl)amino)-2-((1-ethyl-1H-indazol-5-yl)amino)-5-fluoronicotinamide]",< 0.01,< 0.065
"CC[C@H](N)[C@@H](CC)Nc1nc(Nc2ccc3c(cnn3CC)c2)c(C(N)=O)cc1F [Example 006-365, 6-(((3R,4S)-4-aminohexan-3-yl)amino)-2-((1-ethyl-1H-indazol-5-yl)amino)-5-fluoronicotinamide]",< 0.01,0.065 to 0.13
